Results published in patent publication US7208517B1, “Endothelin antagonists” (Abbott Labortories, priority 1994, dated 2007).

Assays:
[1] = target: T1, ETA receptor in MMQ cells (rET-A) (Rattus norvegicus, UniProt P26684); assay: ETA/ETB selectivity: (125I)ET-1 competition binding, ETA assay in MMQ cell membranes (rET-A); conditions: MMQ cell membranes; 0.1 nM (125I)ET-1; read-out: rET-A IC50
T1 construct: endogenous in cells; host or cells: MMQ rat pituitary cells (membranes)
T1 sequence (P26684 21-426): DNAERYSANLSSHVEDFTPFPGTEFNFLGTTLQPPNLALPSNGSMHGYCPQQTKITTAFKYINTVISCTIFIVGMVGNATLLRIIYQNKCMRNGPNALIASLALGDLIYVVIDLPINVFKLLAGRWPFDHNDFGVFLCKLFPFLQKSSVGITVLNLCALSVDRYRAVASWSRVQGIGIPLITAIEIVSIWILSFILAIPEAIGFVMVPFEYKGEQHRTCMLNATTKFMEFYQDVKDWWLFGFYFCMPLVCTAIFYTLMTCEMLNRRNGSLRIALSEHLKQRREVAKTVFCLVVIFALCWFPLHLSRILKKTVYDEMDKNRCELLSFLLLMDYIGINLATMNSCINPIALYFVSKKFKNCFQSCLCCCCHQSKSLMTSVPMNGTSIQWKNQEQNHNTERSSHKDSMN

[2] = target: T2, ETB receptors of porcine cerebellar tissues (pET-B) (Sus scrofa, UniProt P35463); assay: ETA/ETB selectivity: (125I)ET-3 competition binding, ETB assay in porcine cerebellum membranes (pET-B); conditions: porcine cerebellum membranes; 0.1 nM (125I)ET-3; read-out: pET-B IC50
T2 construct: porcine cerebellar tissues (known to contain ETB receptors); from tissue; host or cells: porcine cerebellum (membranes)
T2 sequence (P35463 27-443): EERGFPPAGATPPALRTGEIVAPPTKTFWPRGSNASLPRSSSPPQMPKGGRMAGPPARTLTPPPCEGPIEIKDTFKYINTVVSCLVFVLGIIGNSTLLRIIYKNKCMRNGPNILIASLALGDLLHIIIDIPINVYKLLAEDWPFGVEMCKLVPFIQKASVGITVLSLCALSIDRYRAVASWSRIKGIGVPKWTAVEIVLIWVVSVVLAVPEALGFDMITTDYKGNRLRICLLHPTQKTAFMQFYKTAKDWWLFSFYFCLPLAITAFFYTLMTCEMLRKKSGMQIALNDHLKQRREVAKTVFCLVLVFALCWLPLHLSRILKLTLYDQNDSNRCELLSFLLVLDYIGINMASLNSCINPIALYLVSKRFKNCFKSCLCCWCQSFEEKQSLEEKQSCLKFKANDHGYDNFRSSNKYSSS

human ETA receptor = target: T3, human ETA receptor (Homo sapiens, UniProt P25101); assay: ETA/ETB selectivity: (125I)ET-1 competition binding, CHO cells transfected with human ETA receptor (hET-A); conditions: CHO cells transfected with human ETA receptor; 0.1 nM (125I)ET-1; read-out: hET-A IC50
T3 construct: expressed in transfected cells; host or cells: CHO cells, permanently transfected
T3 sequence (P25101 21-427): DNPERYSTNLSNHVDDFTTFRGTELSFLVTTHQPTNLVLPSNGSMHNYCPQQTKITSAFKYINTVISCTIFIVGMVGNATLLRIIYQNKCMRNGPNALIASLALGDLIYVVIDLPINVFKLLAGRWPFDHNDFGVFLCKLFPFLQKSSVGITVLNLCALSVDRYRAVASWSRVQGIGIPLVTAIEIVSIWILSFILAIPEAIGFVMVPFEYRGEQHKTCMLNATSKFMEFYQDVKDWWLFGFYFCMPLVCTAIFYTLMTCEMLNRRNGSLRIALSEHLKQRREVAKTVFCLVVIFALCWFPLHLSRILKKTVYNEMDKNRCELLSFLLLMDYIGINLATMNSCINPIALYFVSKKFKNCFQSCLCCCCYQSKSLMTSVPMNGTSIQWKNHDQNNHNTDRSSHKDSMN

SMILES	IC50 [1]	IC50 [2]	IC50 (human ETA receptor)
CCCCN(CCCC)C(=O)CN1CC(c2ccc3c(c2)OCO3)C(C(=O)O)C1CC(C)(C)CCC (centres unmarked) [compound 503]	1.4 nM	50000 nM	0.92 nM
CCCCN(CCCC)C(=O)CN1CC(c2ccc3c(c2)OCO3)C(C(=O)O)C1CCC1OCCO1 (centres unmarked) [compound 504]	3.1 nM	> 100000 nM	4.6 nM
CCCCN(CCCC)C(=O)CN1CC(c2ccc3c(c2)OCO3)C(C(=O)O)C1CCC1CCCCO1 (centres unmarked) [compound 505]	2 nM	60000 nM	5.7 nM
CCCCN(CCCC)C(=O)CN1CC(c2ccc3c(c2)OCO3)C(C(=O)O)C1CC(C)(C)C=C(C)C (centres unmarked) [compound 506]	3.2 nM	> 100000 nM	3 nM
CCCCN(CCCC)C(=O)CN1CC(c2ccc3c(c2)OCO3)C(C(=O)O)C1CC(C)(C)C1OCCO1 (centres unmarked) [compound 507]	3 nM	> 100000 nM	1.63 nM
CCCCN(CCCC)C(=O)CN1CC(c2cc(OC)c3c(c2)OCO3)C(C(=O)O)C1CCC1OCCO1 (centres unmarked) [compound 509]	0.56 nM	30000 nM	0.51 nM
CCCCN(CCCC)C(=O)CN1CC(c2ccc3c(c2)OCO3)C(C(=O)O)C1COc1ccccc1OC (centres unmarked) [compound 510]	0.5 nM	35000 nM	1 nM
CCCC(CCC)N(C(=O)CN1CC(c2cc(OC)c3c(c2)OCO3)C(C(=O)O)C1CCC1OCCO1)c1ccc(F)c(C)c1 (centres unmarked) [compound 513]	0.3 nM	8800 nM	0.36 nM
CCCCN(CCCC)C(=O)CN1C[C@H](c2ccc3c(c2)CCO3)[C@@H](C(=O)O)[C@@H]1CC(C)(C)CCC [compound 515]	1.6 nM	> 62000 nM	6.7 nM
CCCCN(CCCC)C(=O)CN1CC(c2cc(OC)c3c(c2)OCO3)C(C(=O)O)C1CC(C)(C)C1OCCO1 (centres unmarked) [compound 516]	0.71 nM	29000 nM	1.8 nM

Results, then the molecule that gave them:

IC50 [1]	IC50 [2]	IC50 (human ETA receptor)	SMILES
1 nM	30000 nM	0.43 nM	CCCCN(CCCC)C(=O)CN1CC(c2ccc3c(c2)OCO3)C(C(=O)O)C1CCc1ccccc1OC (centres unmarked) [compound 517]
0.42 nM	360 nM	0.33 nM	CCCCN(CCCO)C(=O)CN1CC(c2ccc3c(c2)OCO3)C(C(=O)O)C1c1ccc(OC)cc1 (centres unmarked) [compound 523]
0.79 nM	1700 nM	0.82 nM	CCCON(CCC)C(=O)CN1CC(c2ccc3c(c2)OCO3)C(C(=O)O)C1c1ccc(OC)cc1 (centres unmarked) [compound 524]
1.2 nM		0.71 nM	CCCCN(C(=O)CN1CC(c2ccc3c(c2)OCO3)C(C(=O)O)C1c1ccc(OC)cc1)c1cccnc1 (centres unmarked) [compound 531]
0.96 nM	5900 nM	0.23 nM	CCCCN(CCCC)C(=O)CN1C[C@H](c2ccc3c(c2)OCO3)[C@@H](C(=O)O)[C@@H]1CC(C)(C)CCC [compound 537]
